Data reported in patent US6670493B2, “Methods and compositions for treating diseases due to androgen deficiency with glucocorticoid receptor antagonist compounds and new compounds” (Jenapharm GmbH & Co. KG, priority 2001, dated 2003).

How the values were obtained:
[1] = system: primary rat Leydig cells; assay: hCG-stimulated testosterone production in primary rat Leydig cells treated with dexamethasone with or without glucocorticoid receptor antagonist (Elisa); format: cell-based; conditions: for Testosterone Production, Average value ± SD (%): hCG alone = 100, basal = 0
Description: (§1) Testicular cells were prepared from the testicles of sexually mature, 12-week old, male Wistar rats by means of a collagenase treatment. Leydig cells were obtained from this preparation by a continuous Percoll gradient centrifugation.
(§2) Freshly prepared Leydig cells were sown in microtiter plates in 100 μL of DMEM/F12 with phenol red (20,000) cells/well) with addition of 0.1% BSA, penicillin (100 U/ml) and streptomycin (100 μg/ml). After one hour, the medium was changed with addition of substance. For 18 hours, the Leydig cells were incubated with dexamethasone alone or together with glucocorticoid receptor antagonists (250 μL of DMEM/well with addition of penicillin (100 U/ml) and streptomycin (100 μg/ml)). […] Ethanol was used as solvent for dexamethasone and the glucocorticoid receptor antagonists; the final concentration of the ethanol was not more than 0.2%.
Aliquots of the supernatant were frozen at −70° C. Testosterone was measured with a commercial Elisa (IBL, Hamburg). The standard curve of testosterone Elisa was then adapted to the cell culture conditions.

[2] = system: primary rat Leydig cells; assay: Cell damage: activity of mitochondrial succinate dehydrogenase (WST-1 test) in primary rat Leydig cell cultures; format: cell-based
Description: as §1, §2
Parallel to the testosterone measurement, cell damage was determined after the 26 hours by measuring the activity of the mitochondrial succinate dehydrogenase (WST-1 test, Böhringer, Mannheim).

[3] = system: male rats of the CD breeding line; assay: Male sexual behavior of rats after chronic dexamethasone treatment with or without RU 38486; format: in vivo, rat; conditions: for Male Sexual Behavior (Copulations in 5 minutes): day 9, average ± standard error
Description: (§3) Sexually mature, 3-month old male rats of the CD breeding line (Charles River GmbH, Sulzfeld, Germany) were kept in groups of 4 animals under controlled illumination (light:darkness 12:12 hours) with free access to food and drinking water. After a 1-week adaptation, the animals were tested by exposure to ovarectomized, estrogen-treated females for the presence of male sexual behavior (G. Dörner, Hormones and brain differentiation, Elsevier, Amsterdam, 1976, pp. 126-132). […] The animals of the reference group received intraperitoneal injections of dexamethasone (Fortecortin: Merck, Darmstadt, Germany) daily according to the following schedule: 0.5 mg/kg on days 1 to 3, 1 mg/kg on days 4 to 6 and 1.5 mg/kg on days 7 to 9. The control animals were injected with placebo (0.9% sterile NaCl solution. In addition to the dexamethasone treatment, the experimental group received subcutaneous injections of the glucocorticoid receptor antagonist RU 38486 (Sigma, Deisenhofen, Germany) in sesame oil solution in a dose of 10 mg/kg daily according to the schedule given above.
(§4) Male sexual behavior was evaluated on the ninth day by the method given above. After the behavior test, blood samples were taken from the retroorbital plexus for determining the serum testosterone level. The testosterone was determined with a commercial test formulation (IBL, Hamburg, Germany).

[4] = system: male rats of the CD breeding line; assay: Serum testosterone level of rats after chronic dexamethasone treatment with or without RU 38486; format: in vivo, rat; conditions: for Serum Testosterone: day 9, average ± standard error
Description: as §3, §4

[5] = hCG 0.5 ng/ml + 100 nM DEX alone
[6] = dexamethasone alone i.p. 0.5-1.5 mg/kg daily for 9 days
[7] = hCG 0.5 ng/ml + 100 nM DEX + glucocorticoid receptor antagonist 1 μm
[8] = hCG + 100 nM DEX + glucocorticoid receptor antagonist 1 μm
[9] = dexamethasone i.p. 0.5-1.5 mg/kg daily for 9 days + RU 38486 s.c. 10 mg/kg daily
[10] = simultaneous administration of dexamethasone and RU 38486

SMILES	Testosterone Production, Average value ± SD [1, 7] [ng/mL]	Testosterone Production, Average value ± SD (%) [1, 7] [%]	Succinate Dehydrogenase Activity, Average value ± SD [2, 8] [Absorptions Units]	other results
C[C@@H]1C[C@H]2[C@@H]3CCC4=CC(=O)C=C[C@]4(C)[C@@]3(F)[C@@H](O)C[C@]2(C)[C@@]1(O)C(=O)CO [DEX, dexamethasone]				Testosterone Production, Average value ± SD [1, 5]: 2.00 ± 0.58P ng/ml; Testosterone Production, Average value ± SD (%) [1, 5]: 44.63 ± 14.08P %; Effect on mitochondrial succinate dehydrogenase activity (in words) ([2]; dexamethasone 10^-7 M): significant inhibition of the mitochondrial activity; Succinate Dehydrogenase Activity, Average value ± SD [2, 5]: 0.192 ± 0.036 Absorptions Units; Male Sexual Behavior (Copulations in 5 minutes) [3, 6]: 4.0 ± 0.9 Copulations in 5 minutes; Serum Testosterone [4, 6]: 2.3 ± 0.2 ng/mL
COCC1(OC)CCC2C3CCC4=CC(=O)CCC4=C3C(c3ccc(C(=NO)C(F)(F)F)cc3)CC21C (stereo not drawn) [GRA1, 4-(17β-methoxy-17α-(methoxymethyl)-estra-4,9-diene-3-one-11β-yl]2,2,2-trifluoroacetophenone-1(Z)-oxime]	3.57 ± 0.83	83.00 ± 20.40	0.289 ± 0.040	
C[C@]12C[C@H](c3ccc4c(c3)OCO4)C3=C4CCC(=O)C=C4CC[C@H]3[C@@H]1CC[C@@]2(O)C#Cc1ccc(S(C)(=O)=O)cc1 [GRA2]	3.48 ± 0.64	80.97 ± 15.47	0.363 ± 0.032	
CC12CC(c3ccc(C=NO)cc3)C3=C4CCC(=O)C=C4CCC3C1CCC2(O)C#Cc1ccc(S(C)(=O)=O)cc1 (stereo not drawn) [GRA3, 4-[17β-hydroxy-17α,21-(4′-methylsulfonylphenyl)-19-nor-3-oxopregna-4,9-diene-20-yn-11β-yl]benzaldehyde-1(E)-oxime]	4.52 ± 1.01	106.30 ± 24.75	0.313 ± 0.018	
CC#C[C@]1(O)CC[C@H]2[C@@H]3CCC4=CC(=O)CCC4=C3[C@@H](c3ccc(N(C)C)cc3)C[C@@]21C [RU38486, 11β-dimethylaminophenyl-17β-hydroxy-17α-propinyl-estra-4,9-diene-3-one]	4.48 ± 1.14	105.23 ± 27.83	0.311 ± 0.031	Male Sexual Behavior (Copulations in 5 minutes) [3, 9]: 9.2 ± 1.0 Copulations in 5 minutes; Effect on male sexual behavior (in words) [3, 10]: retention of male sexual behavior at the level of the placebo group; Serum Testosterone [4, 9]: 20.2 ± 4.9 ng/mL; Effect on serum testosterone concentration (in words) [4, 10]: prevented the reduction in the serum testosterone concentration
